Data set [1] deals with T1, Rat recombinant PDE10A (rPDE10A2) (Rattus norvegicus, UniProt Q9QYJ6).
T1 construct: made in house; host or cells: Sf9 insect cells (baculovirus)
T1 sequence (Q9QYJ6 1-794): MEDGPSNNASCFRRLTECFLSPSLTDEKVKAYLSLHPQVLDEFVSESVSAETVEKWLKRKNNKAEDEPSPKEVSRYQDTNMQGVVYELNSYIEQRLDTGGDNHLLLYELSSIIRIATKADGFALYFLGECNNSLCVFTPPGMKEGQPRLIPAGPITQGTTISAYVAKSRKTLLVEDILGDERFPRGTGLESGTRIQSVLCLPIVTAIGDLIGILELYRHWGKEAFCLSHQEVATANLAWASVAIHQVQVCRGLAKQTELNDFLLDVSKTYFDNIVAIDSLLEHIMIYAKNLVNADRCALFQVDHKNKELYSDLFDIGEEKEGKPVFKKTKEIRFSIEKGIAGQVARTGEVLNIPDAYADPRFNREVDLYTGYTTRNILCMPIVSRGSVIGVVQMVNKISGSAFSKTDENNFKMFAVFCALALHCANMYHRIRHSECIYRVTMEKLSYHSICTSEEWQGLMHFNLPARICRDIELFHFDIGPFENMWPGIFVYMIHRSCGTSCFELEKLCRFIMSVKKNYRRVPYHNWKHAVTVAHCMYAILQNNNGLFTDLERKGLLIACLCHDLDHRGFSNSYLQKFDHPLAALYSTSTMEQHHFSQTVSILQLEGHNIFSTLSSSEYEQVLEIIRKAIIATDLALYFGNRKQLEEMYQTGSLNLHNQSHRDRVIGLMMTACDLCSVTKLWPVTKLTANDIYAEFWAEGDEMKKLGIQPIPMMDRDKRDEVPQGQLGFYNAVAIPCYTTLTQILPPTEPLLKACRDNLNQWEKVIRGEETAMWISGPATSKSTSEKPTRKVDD
The experiment in a line: In vitro assay PDE10A (SPA, 3H-cAMP). The conditions noted are these: -log IC50 expressed in mol/L, rPDE10A2, 60 nM cAMP. Type of data set: biochemical.

Data set [2] concerns cAMP and cGMP levels in the rat brain (hippocampus and striatum). The experiment in a line: Effect of PDE-inhibitors ex-vivo studies in rat: cAMP and cGMP levels in brain. The conditions noted are these: 10 mg/kg s.c., -1 h.
Method: Upon arrival, the animals (body weight 210-240 g) were housed in groups of 5 and fed normal chow at libitum.
Compounds and/or solvent were administered either orally, subcutaneously or IV. […] After microwave, the rats were decapitated and the heads cooled immediately with ice cold physiological saline. […] 10 vol (w/v) of 0.1N HCl were added. The tissue was homogenized for 3 min at 30 Hz using a Tissuelyser from Qiagen.
The homogenate was transferred into an Eppendorf tube (1.5 ml) and after centrifugation for 15 min at 1600 g in a pre-cooled (4C) Eppendorf centrifuge, the supernatant was collected and stored at −80° C. until analysis.
The cAMP and cGMP levels were measured in the rat brain (hippocampus and striatum) to establish in vivo target engagement and central pharmacological effect of PDE2 inhibition.
Data set [3] is described as follows: Plasma radiometabolite analysis of [18F]B-23. The data set is classed as in vivo, rat. The conditions noted are these: rat plasma, n=1. As to the method:
The metabolic stability of the tracer was studied in normal rats by determination of the relative amounts of parent tracer and radiometabolites in plasma and brain at 2 min and 10 min p.i. of the tracer. […] (n=1), blood was collected in lithium heparin containing tubes (4.5 mL LH PST tubes; BD vacutainer, BD, Franklin Lakes, USA) and stored on ice. Brain was dissected and rinsed with saline (decapitation was preferred since it was difficult to have the rat perfused already at 2 min p.i.). For the 10 min timepoint, rats (n=1) were injected with about 37 MBq of tracer and sacrificed at 10 min p.i by administering an overdose of Nembutal (CEVA Sante Animale, 200 mg/kg intraperitoneal). The rats were perfused by injection of saline into the left ventricle until the liver turned pale. During perfusion, blood was collected and stored on ice. Brain was isolated.
For the plasma radiometabolite analysis, the blood was centrifugated for 10 min at 3000 rpm to separate the plasma. A volume of about 0.1 mL of plasma sample was isolated and spiked with about 10 μL of authentic non-radioactive reference material (1 mg/mL) for identification. The plasma was then injected onto an HPLC system consisting of a Chromolith Performance column (C18, 3 mm×100 mm, Merck) that was eluted with mixtures of 0.05 M NaOAc pH 5.5 (solvent A) and acetonitrile (solvent B). The following method was used for the analysis: isocratic elution with 100% A for 4 min at a flow rate of 0.5 mL/min, then linear gradient to 90% B by 14 min at a flow rate of 1 mL/min, and isocratic elution with a mixture of 10% A and 90% B at a flow rate of 1 mL/min until 17 min. After passing through an in-line UV detector (254 nm) and over a 3 in. NaI(Tl) scintillation detector connected to a single channel analyzer (Gabi box, Raytest, Straubenhardt Germany), the HPLC eluate was collected per minute using an automatic fraction collector. The radioactivity in all fractions was measured using an automated gamma counter. The peak corresponding to the intact tracer eluted at ˜11 min. Polar radiometabolite(s) were eluting from 1 to 3 min. Slightly more polar radiometabolites (relatively to the polarity of the intact tracer) were eluting just before the intact tracer. Faster metabolisation is observed in plasma compared to brain. At 2 min p.i., about 70% of the recovered radioactivity was present as intact tracer. Two more polar radiometabolites (M1, M3) were observed of which one (M3) was closely eluting to the intact tracer. At 10 min p.i., the presence of a large amount of a third polar metabolite (M2, also closely eluting to the parent compound) was observed which accounted for about 60% of the recovered radioactivity. At 10 min p.i., only ˜20% of the recovered radioactivity was still present as intact tracer.

The nature of data set [4]: Biodistribution study of [18F]B-23. Conditions: normal rats, mean ± SD, n=3.
Method: The biodistribution study was carried out in male Wistar rats (body weight 320-370 g) at 2 min, 10 min and 30 min post injection (p.i.) (n=3/time point). […] Blood and major organs were collected in tared tubes and weighed. The radioactivity in blood, organs and other body parts was measured using an automated gamma counter. The distribution of radioactivity in different parts of the body at different time points p.i. of the tracer was calculated and expressed as percentage of injected dose (% ID), and as standardized uptake values (SUV) for the selected organs. % ID is calculated as counts per minute (cpm) in organ/total cpm recovered. SUVs are calculated as (radioactivity in cpm in organ/weight of the organ in g)/(total counts recovered/body weight in g). For calculation of total radioactivity in blood, blood mass was assumed to be 7% of the body mass.

We go through three compounds from patent publication US10604523B2, “1-aryl-4-methyl-[1,2,4]triazolo[4,3-a]quinoxaline derivatives” (Janssen Pharmaceutica NV, priority 2011, dated 2020).

Turning to `CCCCOc1cncc(-c2nnc3c(C)nc4ccc(CN(C)C)cc4n23)c1` [Compound B-197], the “PIC50 PDE10” value in data set [1] is recorded as 5.03. Further, in data set [2], the “Hippocampus cAMP (% of Control)” value is listed as 122 ± 10 % of Control, the “Hippocampus cGMP (% of Control)” value is 104 ± 32 % of Control, the “Striatum cAMP (% of Control)” value was 89 ± 6 % of Control and the “Striatum cGMP (% of Control)” value was 128 ± 26 % of Control.
As to `Cc1nc2ccc(CN3CCOCC3)cc2n2c(-c3c([18F])cccc3Cl)nnc12` [[18F]B-23, 1-[2-Chloro-6-(^18F)fluorophenyl]-4-methyl-8-(morpholin-4-ylmethyl)[1,2,4]triazolo[4,3-a]quinoxaline], in data set [3] (2 min p.i.), the “% in plasma Intact tracer” value was 70%, the “% in plasma Polar metabolite M1” value was 16% and the “% in plasma Polar metabolite M3” value worked out at 14%. In data set [3] (10 min p.i.), the “% in plasma Intact tracer” value came out at 18%, the “% in plasma Polar metabolite M1” value is 10%, the “% in plasma Polar metabolite M2” value worked out at 61% and the “% in plasma Polar metabolite M3” value is 12%. In data set [4] (2 min p.i.), the “% ID Blood” value is listed as 6.69 ± 0.4 % ID, the “% ID Carcass” value is 42.54 ± 4.8 % ID, the “% ID Cerebellum” value is 0.096 ± 0.022 % ID and the “% ID Cerebrum total” value is 1.030 ± 0.130 % ID. In data set [4] (2 min p.i.), the “% ID Cortex” value is 0.086 ± 0.017 % ID, the “% ID Heart” value was found to be 0.81 ± 0.0 % ID, the “% ID Hippocampus” value was found to be 0.036 ± 0.002 % ID and the “% ID Intestines” value is on record as 9.51 ± 1.1 % ID. Moreover, in data set [4] (2 min p.i.), the “% ID Kidneys” value worked out at 4.68 ± 0.7 % ID, the “% ID Liver” value is 30.79 ± 4.6 % ID, the “% ID Lungs” value amounted to 2.27 ± 1.2 % ID and the “% ID Rest of cerebrum” value is listed as 0.809 ± 0.130 % ID. In addition, in data set [4] (2 min p.i.), the “% ID Spleen + Pancreas” value worked out at 1.57 ± 0.1 % ID, the “% ID Stomach” value stood at 2.44 ± 0.3 % ID, the “% ID Striatum” value was determined as 0.098 ± 0.010 % ID and the “% ID Urine” value is reported as 0.25 ± 0.1 % ID. Besides, in data set [4] (10 min p.i.), the “% ID Blood” value is 6.27 ± 0.5 % ID, the “% ID Carcass” value amounted to 37.39 ± 4.9 % ID, the “% ID Cerebellum” value turned out to be 0.020 ± 0.002 % ID and the “% ID Cerebrum total” value is on record as 0.212 ± 0.006 % ID. Besides, in data set [4] (10 min p.i.), the “% ID Cortex” value came to 0.016 ± 0.004 % ID, the “% ID Heart” value is 0.23 ± 0.0 % ID, the “% ID Hippocampus” value came to 0.006 ± 0.001 % ID and the “% ID Intestines” value was 10.97 ± 1.5 % ID. In data set [4] (10 min p.i.), the “% ID Kidneys” value is on record as 6.02 ± 1.2 % ID, the “% ID Liver” value turned out to be 37.83 ± 3.3 % ID, the “% ID Lungs” value stood at 0.68 ± 0.1 % ID and the “% ID Rest of cerebrum” value is on record as 0.159 ± 0.006 % ID. In data set [4] (10 min p.i.), the “% ID Spleen + Pancreas” value stood at 0.42 ± 0.0 % ID, the “% ID Stomach” value was 2.77 ± 0.8 % ID, the “% ID Striatum” value was 0.031 ± 0.005 % ID and the “% ID Urine” value was 0.61 ± 0.5 % ID. Besides, in data set [4] (30 min p.i.), the “% ID Blood” value is listed as 4.10 ± 0.6 % ID, the “% ID Carcass” value turned out to be 23.75 ± 1.9 % ID, the “% ID Cerebellum” value worked out at 0.011 ± 0.005 % ID and the “% ID Cerebrum total” value is 0.084 ± 0.026 % ID. Further, in data set [4] (30 min p.i.), the “% ID Cortex” value came to 0.006 ± 0.003 % ID, the “% ID Heart” value is given as 0.12 ± 0.0 % ID, the “% ID Hippocampus” value worked out at 0.003 ± 0.001 % ID and the “% ID Intestines” value is listed as 19.75 ± 5.6 % ID. Further, in data set [4] (30 min p.i.), the “% ID Kidneys” value was determined as 8.24 ± 0.3 % ID, the “% ID Liver” value came out at 29.30 ± 4.8 % ID, the “% ID Lungs” value is recorded as 0.46 ± 0.0 % ID and the “% ID Rest of cerebrum” value was 0.064 ± 0.024 % ID. For the same compound, in data set [4] (30 min p.i.), the “% ID Spleen + Pancreas” value amounted to 0.32 ± 0.1 % ID, the “% ID Stomach” value was found to be 4.81 ± 0.3 % ID, the “% ID Striatum” value is 0.012 ± 0.001 % ID and the “% ID Urine” value turned out to be 10.80 ± 1.2 % ID.
On to `CCCCOc1ccc(Cl)c(-c2nnc3c(C)nc4ccc(CN(C)C)cc4n23)c1` [Compound B-88], for which the IC50 in data set [1] (read-out: PIC50 PDE10 (converted)) is 2140 nM. Besides, in data set [2], the “Hippocampus cAMP (% of Control)” value is on record as 117 ± 20 % of Control, the “Hippocampus cGMP (% of Control)” value is recorded as 150 ± 42 % of Control, the “Striatum cAMP (% of Control)” value is reported as 88 ± 12 % of Control and the “Striatum cGMP (% of Control)” value is listed as 121 ± 20 % of Control.
